Assay [1] concerns the target hPARG (C-terminal His6-tag) (Homo sapiens (Human), UniProt Q86W56). The assay can be described thus: PARG Enzymatic Activity Assay (HTRF). The class given is biochemical. The settings on record: hPARG 65 pM final, biotinylated-NAD ribosylated PARP1 8 nM final. The procedure, abridged:
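Readout is time-resolved fluorescence at 620 and 665 nm after 60 min RT detection with streptavidin-Eu cryptate and anti-6HIS-XL665; IC50 by 4-parameter fit, 1% DMSO and no-enzyme controls. Reaction: 8 nM final ribosylated PARP1 substrate for 10 min RT, following 60 min RT enzyme (65 pM)–compound preincubation in Tris pH 7.4 buffer with EDTA, DTT, KCl.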

The subject of another assay is Kuramochi cell line. The assay can be described thus: Cell Viability Assay (Cell Titer-Glo, 7 days). Particulars: 168 h, Kuramochi cells, 7 days incubation, read-out: PARG Cell viability (IC50). The class given is cell-based. The procedure, abridged:
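IC50 from a four-parameter fit of CellTiter-Glo luminescence, scaled between DMSO-treated (high) and medium-only (low) wells. Kuramochi cells (400/well, RPMI/10% FBS) exposed 7 days at 37 °C to 9 concentrations, 3-fold steps, in duplicate.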

Each structure is given as a SMILES string. A value given as a limit tells only on which side of the number the result lay.

hPARG (C-terminal His6-tag), sequence (Q86W56 whole entry): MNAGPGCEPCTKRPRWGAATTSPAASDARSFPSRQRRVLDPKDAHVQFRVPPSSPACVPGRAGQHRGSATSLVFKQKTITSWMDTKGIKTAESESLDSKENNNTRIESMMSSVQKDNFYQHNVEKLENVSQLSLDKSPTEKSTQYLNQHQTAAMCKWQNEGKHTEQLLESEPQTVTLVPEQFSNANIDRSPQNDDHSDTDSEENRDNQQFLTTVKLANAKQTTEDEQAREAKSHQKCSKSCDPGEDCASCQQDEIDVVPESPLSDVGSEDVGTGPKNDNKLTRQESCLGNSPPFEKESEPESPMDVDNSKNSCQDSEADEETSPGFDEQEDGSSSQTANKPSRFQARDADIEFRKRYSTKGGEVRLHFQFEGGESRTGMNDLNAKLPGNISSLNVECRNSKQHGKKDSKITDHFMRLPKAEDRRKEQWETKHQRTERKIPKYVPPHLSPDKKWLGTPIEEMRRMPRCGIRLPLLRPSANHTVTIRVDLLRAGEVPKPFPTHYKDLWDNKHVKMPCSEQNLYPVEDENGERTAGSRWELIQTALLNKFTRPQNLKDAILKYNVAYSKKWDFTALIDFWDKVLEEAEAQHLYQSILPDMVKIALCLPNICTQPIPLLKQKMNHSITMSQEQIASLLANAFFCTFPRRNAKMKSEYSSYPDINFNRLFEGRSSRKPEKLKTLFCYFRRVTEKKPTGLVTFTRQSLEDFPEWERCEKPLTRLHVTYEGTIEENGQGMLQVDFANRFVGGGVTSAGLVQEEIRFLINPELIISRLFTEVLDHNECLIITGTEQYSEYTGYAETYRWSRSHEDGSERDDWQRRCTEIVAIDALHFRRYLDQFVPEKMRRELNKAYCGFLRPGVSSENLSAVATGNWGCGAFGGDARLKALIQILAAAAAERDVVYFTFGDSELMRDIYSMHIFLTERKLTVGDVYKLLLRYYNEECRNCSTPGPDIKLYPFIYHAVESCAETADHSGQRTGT

In general, IC50 refers to the concentration that inhibits the measured activity by half. Turning to `C[C@H]1CN(c2ncnc3c2c2ccc(S(=O)(=O)NC4(C#N)CC4)cc2n3-c2nnc(C(F)F)s2)CCN1CC1CC1` [Example 164, (S)-N-(1-cyanocyclopropyl)-4-(4-(cyclopropylmethyl)-3-methylpiperazin-1-yl)-9-(5-(difluoromethyl)-1,3,4-thiadiazol-2-yl)-9H-pyrimido[4,5-b]indole-7-sulfonamide], the IC50 (in assay [1]; in the assay on Kuramochi cell line) was below 0.1 µM throughout.
As for `Cc1nc(N2CCN3CCOC[C@H]3C2)c2c3ccc(S(=O)(=O)NC4(C#N)CC4)cc3n(-c3nnc(C(F)F)s3)c2n1` [Example 192, (R)—N-(1-Cyanocyclopropyl)-9-(5-(difluoromethyl)-1,3,4-thiadiazol-2-yl)-4-(hexahydropyrazino[2,1-c][1,4]oxazin-8(1H)-yl)-2-methyl-9H-pyrimido[4,5-b]indole-7-sulfonamide], the IC50 was 0.1 to 1 µM in assay [1] and below 0.1 µM in the assay with Kuramochi cell line.
For `CC(C)(C)C(=O)N1CCN(c2ncnc3c2c2ccc(S(=O)(=O)NC4(C#N)CC4)cc2n3-c2nnc(C(F)F)s2)CC1` [Example 3, N-(1-Cyanocyclopropyl)-9-(5-(difluoromethyl)-1,3,4-thiadiazol-2-yl)-4-(4-pivaloylpiperazin-1-yl)-9H-pyrimido[4,5-b]indole-7-sulfonamide], in that order: below 0.1 µM and below 0.1 µM.
As to `C[C@H]1CN(c2ncnc3c2c2ccc(S(=O)(=O)NC4(C#N)CC4)cc2n3-c2nnc(C(F)F)s2)CCO1` [Example 50, (S)-N-(1-Cyanocyclopropyl)-9-(5-(difluoromethyl)-1,3,4-thiadiazol-2-yl)-4-(2-methylmorpholino)-9H-pyrimido[4,5-b]indole-7-sulfonamide], the IC50 (in assay [1]; in the assay on Kuramochi cell line) was below 0.1 µM each time.
For the compound `CC(C)C(=O)N1C[C@@H](C)N(c2ncnc3c2c2ccc(S(=O)(=O)NC4(C#N)CC4)cc2n3-c2nnc(C(F)F)s2)C[C@@H]1C` [Example 33, N-(1-Cyanocyclopropyl)-9-(5-(difluoromethyl)-1,3,4-thiadiazol-2-yl)-4-((2R,5S)-4-isobutyryl-2,5-dimethylpiperazin-1-yl)-9H-pyrimido[4,5-b]indole-7-sulfonamide], the IC50 (in assay [1]; in the assay on Kuramochi cell line) was below 0.1 µM in each case.
For the compound `CN1CCN(c2ncnc3c2c2ccc(S(=O)(=O)NC4(C#N)CC4)cc2n3-c2nnc(C(F)F)s2)C[C@@H]1CF` [Example 203, (R)—N-(1-Cyanocyclopropyl)-9-(5-(difluoromethyl)-1,3,4-thiadiazol-2-yl)-4-(3-(fluoromethyl)-4-methylpiperazin-1-yl)-9H-pyrimido[4,5-b]indole-7-sulfonamide], the IC50 (in assay [1]; with Kuramochi cell line) was below 0.1 µM in each case.
Take `CC(C)C(=O)N1CCC(c2ncnc3c2c2cc(F)c(S(=O)(=O)NC4(C)CC4)cc2n3-c2nnc(C(F)F)s2)CC1` [Example 148, 9-(5-(Difluoromethyl)-1,3,4-thiadiazol-2-yl)-6-fluoro-4-(1-isobutyrylpiperidin-4-yl)-N-(1-methylcyclopropyl)-9H-pyrimido[4,5-b]indole-7-sulfonamide]: the IC50 (in assay [1]; in the assay on Kuramochi cell line) was below 0.1 µM each time.
`N#CC1(NS(=O)(=O)c2ccc3c4c(N5C[C@@H]6C[C@H]5CO6)ncnc4n(-c4nnc(C(F)F)s4)c3c2)CC1` [Example 177, 4-((1S,4S)-2-oxa-5-azabicyclo[2.2.1]heptan-5-yl)-N-(1-cyanocyclopropyl)-9-(5-(difluoromethyl)-1,3,4-thiadiazol-2-yl)-9H-pyrimido[4,5-b]indole-7-sulfonamide]: the IC50 (in assay [1]; in the assay on Kuramochi cell line) was below 0.1 µM throughout.
On to `C[C@@H]1CN(c2ncnc3c2c2ccc(S(=O)(=O)NC4(C#N)CC4)cc2n3-c2nnc(C(F)F)s2)C[C@H](C)N1C(=O)CN1CCOCC1` [Example 39, N-(1-Cyanocyclopropyl)-9-(5-(difluoromethyl)-1,3,4-thiadiazol-2-yl)-4-((3R,5S)-3,5-dimethyl-4-(2-morpholinoacetyl)piperazin-1-yl)-9H-pyrimido[4,5-b]indole-7-sulfonamide], for which the IC50 (in assay [1]; in the assay on Kuramochi cell line) was below 0.1 µM in each case.
In the case of `CCN(CC)C1CCN(c2ncnc3c2c2ccc(S(=O)(=O)NC4(C#N)CC4)cc2n3-c2nnc(C(F)F)s2)C[C@@H]1F` (stereo partly drawn) [Example 206, N-(1-Cyanocyclopropyl)-4-((3S)-4-(diethylamino)-3-fluoropiperidin-1-yl)-9-(5-(difluoromethyl)-1,3,4-thiadiazol-2-yl)-9H-pyrimido[4,5-b]indole-7-sulfonamide], the half-maximal inhibitory concentration (IC50) (in assay [1]; in the assay with Kuramochi cell line) was below 0.1 µM in each case.
Turning to `C[C@H]1CN(C(=O)N(C)C)CCN1c1ncnc2c1c1ccc(S(=O)(=O)NC3(C#N)CC3)cc1n2-c1nnc(C(F)F)s1` [Example 72, (S)-4-(7-(N-(1-Cyanocyclopropyl)sulfamoyl)-9-(5-(difluoromethyl)-1,3,4-thiadiazol-2-yl)-9H-pyrimido[4,5-b]indol-4-yl)-N,N,3-trimethylpiperazine-1-carboxamide], the IC50 (in assay [1]; with Kuramochi cell line) was 0.1 to 1 µM throughout.
For `C[C@H](N)C(=O)N1CCC(c2ncnc3c2c2ccc(S(=O)(=O)NC4(C#N)CC4)cc2n3-c2nnc(C(F)F)s2)CC1` [Example 128, 4-(1-(L-alanyl)piperidin-4-yl)-N-(1-cyanocyclopropyl)-9-(5-(difluoromethyl)-1,3,4-thiadiazol-2-yl)-9H-pyrimido[4,5-b]indole-7-sulfonamide], the figures for the IC50 (in assay [1]; with Kuramochi cell line) were below 0.1 µM and 0.1 to 1 µM, respectively.
On to `N#CC1(NS(=O)(=O)c2ccc3c4c(N5CCC(O)CC5)ncnc4n(-c4nnc(C(F)F)s4)c3c2)CC1` [Example 189, N-(1-Cyanocyclopropyl)-9-(5-(difluoromethyl)-1,3,4-thiadiazol-2-yl)-4-(4-hydroxypiperidin-1-yl)-9H-pyrimido[4,5-b]indole-7-sulfonamide], for which the IC50 (in assay [1]; with Kuramochi cell line) was below 0.1 µM each time.
For `CN(C)C(=O)c1ccc(-c2ncnc3c2c2ccc(S(=O)(=O)NC4(C#N)CC4)cc2n3-c2nnc(C(F)F)s2)cn1` [Example 97, 5-(7-(N-(1-cyanocyclopropyl)sulfamoyl)-9-(5-(difluoromethyl)-1,3,4-thiadiazol-2-yl)-9H-pyrimido[4,5-b]indol-4-yl)-N,N-dimethylpicolinamide], the IC50 (in assay [1]; in the assay with Kuramochi cell line) was below 0.1 µM throughout.
Regarding `N#CC1(NS(=O)(=O)c2ccc3c4c(C5CCNCC5)ncnc4n(-c4nnc(C(F)F)s4)c3c2)CC1` [Example 87, N-(1-Cyanocyclopropyl)-9-(5-(difluoromethyl)-1,3,4-thiadiazol-2-yl)-4-(piperidin-4-yl)-9H-pyrimido[4,5-b]indole-7-sulfonamide], the IC50 in assay [1] is below 0.1 µM; with Kuramochi cell line it was 0.1 to 1 µM.
The matching figures for `CC(C)C(=O)N1CCC(c2ncnc3c2c2cc(F)c(S(=O)(=O)NC4(C#N)CC4)cc2n3-c2nnc(C(F)F)s2)CC1` [Example 90, N-(1-Cyanocyclopropyl)-9-(5-(difluoromethyl)-1,3,4-thiadiazol-2-yl)-6-fluoro-4-(1-isobutyrylpiperidin-4-yl)-9H-pyrimido[4,5-b]indole-7-sulfonamide]: below 0.1 µM and below 0.1 µM.

(Values after patent US20250388589A1, “TRICYCLIC HETEROCYCLIC DERIVATIVES, COMPOSITIONS AND USES THEREOF” (Danatlas Pharmaceuticals Co., Ltd., priority 2022, published 2025).)
